ChEMBL document CHEMBL1201862, “PubChem BioAssay data set” (2004)
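Grown in 96-well plates, cells were treated for 48 hours with each compound at five concentrations. Insufficient inhibition: endpoint recorded as highest concentration tested. GI50: concentration for 50% inhibition of growth.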 Calls of active or inactive are those of the source. Rule as the data show it: active = GI50 up to about 1.1 µM and inactive = higher.

How the values were obtained:
Experiment in all cases: growth of human tumour cells (NCI), 48 h
IGROV-1 = tested on: IGROV-1
MCF7 = tested on: MCF7
EKVX = tested on: EKVX
OVCAR-8 = tested on: OVCAR-8
KM12 = tested on: KM12
CAKI-1 = tested on: CAKI-1
DU-145 = tested on: DU-145
SNB-75 = tested on: SNB-75
LOX IMVI = tested on: LOX IMVI
MDA-MB-435 = tested on: MDA-MB-435
HCT-116 = tested on: HCT-116
TK-10 = tested on: TK-10
SNB-19 = tested on: SNB-19
HCC 2998 = tested on: HCC 2998
SF-268 = tested on: SF-268
SK-MEL-28 = tested on: SK-MEL-28
A498 = tested on: A498
SK-MEL-2 = tested on: SK-MEL-2
SN12C = tested on: SN12C

Row | Structure (SMILES) | GI50 (IGROV-1) | GI50 (MCF7) | GI50 (EKVX) | GI50 (OVCAR-8) | GI50 (KM12) | GI50 (CAKI-1) | GI50 (DU-145) | GI50 (SNB-75) | GI50 (LOX IMVI) | GI50 (MDA-MB-435) | GI50 (HCT-116) | GI50 (TK-10) | GI50 (SNB-19) | GI50 (HCC 2998) | GI50 (SF-268) | GI50 (SK-MEL-28) | GI50 (A498) | GI50 (SK-MEL-2) | GI50 (SN12C)
1 | CCC(=O)NC(Nc1cc(C)on1)(C(F)(F)F)C(F)(F)F | > 100 µM (inactive) | > 100 µM (inactive) | > 100 µM (inactive) | > 100 µM (inactive) | > 100 µM (inactive) | > 100 µM (inactive) | > 100 µM (inactive) | > 100 µM (inactive) | > 100 µM (inactive) | > 100 µM (inactive) | > 100 µM (inactive) | > 100 µM (inactive) | > 100 µM (inactive) | > 100 µM (inactive) | > 100 µM (inactive) | > 100 µM (inactive) | > 100 µM (inactive) | > 100 µM (inactive) | > 100 µM (inactive)
2 | CCOC(=O)c1c(O)cn2c1[nH]c1cccc3cccc2c31 | 62.2 µM (inactive) | 49.2 µM (inactive) | > 100 µM (inactive) | 44.1 µM (inactive) | > 100 µM (inactive) | > 100 µM (inactive) | 71.6 µM (inactive) | 37.4 µM (inactive) | 46.9 µM (inactive) | > 100 µM (inactive) | > 100 µM (inactive) | > 100 µM (inactive) | 97.7 µM (inactive) | 64.7 µM (inactive) | 63.7 µM (inactive) | > 100 µM (inactive) | > 100 µM (inactive) | > 100 µM (inactive) | > 100 µM (inactive)
3 | CSc1c(C#N)c(N)nc2c(/N=N\c3ccc(Cl)cc3)c(N)nn12 | 1.85 µM (inactive) | 2.17 µM (inactive) | 0.34 µM (active) | 2.08 µM (inactive) | 6.14 µM (inactive) | 18.7 µM (inactive) | 2.24 µM (inactive) | 7.41 µM (inactive) | 1.52 µM (inactive) | 9.89 µM (inactive) | 7.87 µM (inactive) | 13.3 µM (inactive) | 17.3 µM (inactive) | 5.94 µM (inactive) | 2.39 µM (inactive) | 2.58 µM (inactive) | 39.2 µM (inactive) | 2.87 µM (inactive) | 3.17 µM (inactive)
4 | COc1ccc(NC2Oc3cc4c(cc3C(c3cccc(OC)c3OC)C2C)OCO4)cc1 (centres undefined) | 8.75 µM (inactive) | 8.81 µM (inactive) | 18.5 µM (inactive) | 5.13 µM (inactive) | 6.68 µM (inactive) | 3.72 µM (inactive) | 4.16 µM (inactive) | 5.06 µM (inactive) | 11.4 µM (inactive) | 10 µM (inactive) | 3.83 µM (inactive) | 6.4 µM (inactive) | 53.3 µM (inactive) | 43.5 µM (inactive) | 10.1 µM (inactive) | 16.3 µM (inactive) | 10.9 µM (inactive) | 5.3 µM (inactive) | 6.19 µM (inactive)
5 | CC(=O)NC(CCCOC(C)=O)C(=O)NC(CCCOC(C)=O)C(=O)NC(CCCOC(C)=O)C(=O)NC(Cc1ccc([N+](=O)[O-])cc1)C(=O)NCC(=O)OCc1ccccc1 (centres undefined) | > 100 µM (inactive) | > 100 µM (inactive) | > 100 µM (inactive) | > 100 µM (inactive) | > 100 µM (inactive) | > 100 µM (inactive) | > 100 µM (inactive) | > 100 µM (inactive) | > 100 µM (inactive) | > 100 µM (inactive) | > 100 µM (inactive) | > 100 µM (inactive) | > 100 µM (inactive) | > 100 µM (inactive) | > 100 µM (inactive) | > 100 µM (inactive) | > 100 µM (inactive) | > 100 µM (inactive) | > 100 µM (inactive)
6 | CCC/C(Cl)=N/OC(=O)Nc1cccc(F)c1 | 13.2 µM (inactive) | 2.77 µM (inactive) | 2.46 µM (inactive) | 16 µM (inactive) | 15.7 µM (inactive) | 3.33 µM (inactive) | 17.5 µM (inactive) | 3.4 µM (inactive) | 1.91 µM (inactive) | 11.9 µM (inactive) | 4.19 µM (inactive) | 2.38 µM (inactive) | 17.9 µM (inactive) | 15.6 µM (inactive) | 21.7 µM (inactive) | 5.12 µM (inactive) | > 10 µM (inactive) | 18.7 µM (inactive) | 6.75 µM (inactive)
